Reference: ChEMBL document CHEMBL4373665, “Discovery of new non-acidic lonazolac analogues with COX-2 selectivity as potent anti-inflammatory agents” (Medchemcomm, 2019)

Assays:
[1] = biological target: Prostaglandin G/H synthase 1 (Homo sapiens, UniProt P23219); experiment: Inhibition of human recombinant COX1 assessed as decrease in prostaglandin production using arachidonic acid as substrate pretreated for 15 mins followed by substrate addition and measured after 2 mins by enzyme immunoassay; assay type: single protein
Sequence of Prostaglandin G/H synthase 1 (P23219 whole entry): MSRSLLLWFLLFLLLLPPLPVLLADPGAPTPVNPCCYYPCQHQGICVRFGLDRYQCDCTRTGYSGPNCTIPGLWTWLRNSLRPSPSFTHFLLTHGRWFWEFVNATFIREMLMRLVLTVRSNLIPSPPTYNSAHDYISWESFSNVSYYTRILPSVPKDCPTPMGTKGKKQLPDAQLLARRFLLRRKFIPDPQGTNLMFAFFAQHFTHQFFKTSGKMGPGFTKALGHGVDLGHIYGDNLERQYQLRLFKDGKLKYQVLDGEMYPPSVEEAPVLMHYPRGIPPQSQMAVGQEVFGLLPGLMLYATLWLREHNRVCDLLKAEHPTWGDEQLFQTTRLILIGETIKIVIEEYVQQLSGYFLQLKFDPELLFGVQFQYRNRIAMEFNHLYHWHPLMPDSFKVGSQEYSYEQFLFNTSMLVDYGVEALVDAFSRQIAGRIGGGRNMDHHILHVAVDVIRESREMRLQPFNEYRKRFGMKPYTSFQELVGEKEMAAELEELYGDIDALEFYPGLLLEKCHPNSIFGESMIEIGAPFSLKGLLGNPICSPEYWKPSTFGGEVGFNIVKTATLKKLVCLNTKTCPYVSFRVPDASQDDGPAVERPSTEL

[2] = test system: Rattus norvegicus; experiment: Anti-inflammatory activity in albino rat model of carrageenan-induced paw edema assessed as inhibition of carrageenan-induced paw edema at 100 mg/kg, po administered as single dose prior to carrageenan challenge measured after 8 hrs relative to control; assay type: functional
[3] = biological target: T1, Prostaglandin G/H synthase 2 (Homo sapiens, UniProt P35354); experiment: Inhibition of human recombinant COX2 assessed as decrease in prostaglandin production using arachidonic acid as substrate pretreated for 15 mins followed by substrate addition and measured after 2 mins by enzyme immunoassay
T1 sequence (P35354 whole entry): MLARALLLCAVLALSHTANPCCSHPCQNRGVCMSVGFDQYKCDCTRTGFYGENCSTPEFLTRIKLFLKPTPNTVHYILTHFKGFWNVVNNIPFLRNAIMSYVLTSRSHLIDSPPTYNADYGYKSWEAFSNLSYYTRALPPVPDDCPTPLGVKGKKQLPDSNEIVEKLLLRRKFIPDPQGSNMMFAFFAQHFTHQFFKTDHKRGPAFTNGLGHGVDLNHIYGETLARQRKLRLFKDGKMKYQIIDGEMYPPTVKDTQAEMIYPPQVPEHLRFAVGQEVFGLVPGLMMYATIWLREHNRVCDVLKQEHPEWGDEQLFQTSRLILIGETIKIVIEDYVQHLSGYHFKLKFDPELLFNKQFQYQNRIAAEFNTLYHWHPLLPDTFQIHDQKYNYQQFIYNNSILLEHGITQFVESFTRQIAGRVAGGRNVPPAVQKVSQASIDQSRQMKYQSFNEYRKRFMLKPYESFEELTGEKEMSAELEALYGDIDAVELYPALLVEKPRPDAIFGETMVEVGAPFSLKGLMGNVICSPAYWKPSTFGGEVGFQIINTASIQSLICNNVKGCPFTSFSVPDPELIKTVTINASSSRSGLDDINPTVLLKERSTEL

[4] = test system: Rattus norvegicus; experiment: Anti-inflammatory activity in albino rat model of carrageenan-induced paw edema assessed as paw edema thickness at 100 mg/kg, po administered as single dose prior to carrageenan challenge measured after 12 hrs; assay type: functional
[5] = test system: Rattus norvegicus; experiment: Anti-inflammatory activity in albino rat model of carrageenan-induced paw edema assessed as inhibition of carrageenan-induced paw edema at 100 mg/kg, po administered as single dose prior to carrageenan challenge measured after 3 hrs relative to control; assay type: functional
[6] = test system: Rattus norvegicus; experiment: Anti-inflammatory activity in albino rat model of carrageenan-induced paw edema assessed as inhibition of carrageenan-induced paw edema at 100 mg/kg, po administered as single dose prior to carrageenan challenge measured after 1 hr relative to control; assay type: functional
[7] = species: Homo sapiens; experiment: Selectivity index, ratio of IC50 for human recombinant COX1 to IC50 for human recombinant COX2 using arachidonic acid as substrate
[8] = test system: Rattus norvegicus; experiment: Anti-inflammatory activity in albino rat model of carrageenan-induced paw edema assessed as inhibition of carrageenan-induced paw edema at 100 mg/kg, po administered as single dose prior to carrageenan challenge measured after 4 hrs relative to control; assay type: functional
[9] = test system: Rattus norvegicus; experiment: Anti-inflammatory activity in albino rat model of carrageenan-induced paw edema assessed as paw edema thickness at 100 mg/kg, po administered as single dose prior to carrageenan challenge measured after 8 hrs; assay type: functional
[10] = Nephrotoxicity in rat assessed as effect on proximal tubule at 50 mg/kg by hematoxylin and eosin staining based assay; assay type: toxicity, organism-based; details: in vivo
[11] = Hepatotoxicity in rat assessed as effect on portal veins at 50 mg/kg by hematoxylin and eosin staining based assay; assay type: toxicity, organism-based; details: in vivo
[12] = Hepatotoxicity in rat assessed as effect on central veins in liver at 50 mg/kg by hematoxylin and eosin staining based assay; assay type: toxicity, organism-based; details: in vivo
[13] = test system: Rattus norvegicus; experiment: Anti-inflammatory activity in albino rat model of carrageenan-induced paw edema assessed as inhibition of carrageenan-induced paw edema at 100 mg/kg, po administered as single dose prior to carrageenan challenge measured after 12 hrs relative to control; assay type: functional
[14] = Ulcerogenic activity in rat assessed as effect on gastric submucosa at 50 mg/kg by hematoxylin and eosin staining based assay; assay type: toxicity, organism-based; details: in vivo
[15] = Hepatotoxicity in rat assessed as effect on hepatocytes in periportal area at 50 mg/kg by hematoxylin and eosin staining based assay; assay type: toxicity, organism-based; details: in vivo
[16] = Ulcerogenic activity in rat assessed as average number of ulcers formed at 50 mg/kg, sc qd for 4 days post 18 hrs fasting measured after 4 days; assay type: toxicity, organism-based; details: in vivo, 96 h
[17] = Ulcerogenic activity in rat assessed as ulcer index at 50 mg/kg, sc qd for 4 days post 18 hrs fasting measured after 4 days; assay type: toxicity, organism-based; details: in vivo, 96 h
[18] = Nephrotoxicity in rat assessed as effect on glomeruli at 50 mg/kg surrounded by Bowmann's capsule by hematoxylin and eosin staining based assay; assay type: toxicity, organism-based; details: in vivo
[19] = Ulcerogenic activity in rat assessed as average severity of ulcers formed at 50 mg/kg, sc qd for 4 days post 18 hrs fasting measured after 4 days; assay type: toxicity, organism-based; details: in vivo, 96 h
[20] = Ulcerogenic activity in rat assessed as effect on parietal cells at 50 mg/kg by hematoxylin and eosin staining based assay; assay type: toxicity, organism-based; details: in vivo
[21] = Ulcerogenic activity in rat assessed as effect on gastric mucosa at 50 mg/kg by hematoxylin and eosin staining based assay; assay type: toxicity, organism-based; details: in vivo
[22] = Ulcerogenic activity in rat assessed as incidence of gastric ulceration at 50 mg/kg, sc qd for 4 days post 18 hrs fasting measured after 4 days relative to control; assay type: toxicity, organism-based; details: in vivo, 96 h
[23] = Hepatotoxicity in rat assessed as effect on bile ducts at 50 mg/kg by hematoxylin and eosin staining based assay; assay type: toxicity, organism-based; details: in vivo
[24] = Ulcerogenic activity in rat assessed as effect on mucosal blood vessel at 50 mg/kg by hematoxylin and eosin staining based assay; assay type: toxicity, organism-based; details: in vivo
[25] = Nephrotoxicity in rat assessed as effect on distal tubule at 50 mg/kg by hematoxylin and eosin staining based assay; assay type: toxicity, organism-based; details: in vivo

SMILES	IC50 [1]	IC50 [3]	Ratio IC50 [7]	inhibition in vivo at 100 mg/kg [2]	Activity [4]	inhibition in vivo at 100 mg/kg [5]	inhibition in vivo at 100 mg/kg [6]	inhibition in vivo at 100 mg/kg [8]	Activity [9]	Activity [10]	Activity [11]	Activity [12]	inhibition in vivo at 100 mg/kg [13]	Activity [14]	Activity [15]	Activity [16]	UI [17]	Activity [18]	Activity [19]	Activity [20]	other results
c1ccc(COc2ccc(-c3nn(-c4ccccc4)cc3-c3cc(-c4ccccc4)no3)cc2)cc1	9.57 µM	2.11 µM	4.54	6.9%	1.83 mm	42.5%	73.8%	28.4%	–	–	–	–	–	–	–	–	–	–	–	–	–
N#CC1=C(N)OC(c2ccc(Cl)cc2)=CC1c1cn(-c2ccccc2)nc1-c1ccc(OCc2ccccc2)cc1 (stereo not given)	9.68 µM	11.6 µM	0.831	–	1.85 mm	38.2%	28.8%	18.2%	2.31 mm	–	–	–	–	–	–	–	–	–	–	–	–
O=C(/C=C/c1cn(-c2ccccc2)nc1-c1ccc(OCc2ccccc2)cc1)c1ccccc1	15.5 µM	1.88 µM	8.22	23.8%	–	58.2%	81.7%	51.2%	–	Non-Toxic	Non-Toxic	Non-Toxic	32.5%	Non-Toxic	Non-Toxic	0.4	2.8	Non-Toxic	0.4	Non-Toxic	Activity [21]: Non-Toxic; Activity [22]: 2%; Activity [23]: Non-Toxic; Activity [24]: Non-Toxic; Activity [25]: Non-Toxic
Nc1nc(-c2ccccc2)cc(-c2cn(-c3ccccc3)nc2-c2ccc(OCc3ccccc3)cc2)n1	16.5 µM	2.8 µM	5.89	40.2%	–	74.4%	82%	83.9%	–	Toxic	Toxic	Toxic	33.6%	Toxic	Toxic	0.6	3.2	Toxic	0.6	Toxic	Activity [21]: Toxic; Activity [22]: 2%; Activity [23]: Toxic; Activity [24]: Toxic; Activity [25]: Toxic
NC(=S)n1nc(-c2ccc(Cl)cc2)cc1-c1cn(-c2ccccc2)nc1-c1ccc(OCc2ccccc2)cc1	6.07 µM	4.69 µM	1.31	5.9%	1.89 mm	24.6%	47.5%	24.5%	–	–	–	–	–	–	–	–	–	–	–	–	–

Now those with a lower IC50 [1], led by results:

IC50 [1]	IC50 [3]	Ratio IC50 [7]	SMILES	inhibition in vivo at 100 mg/kg [2]	Activity [4]	inhibition in vivo at 100 mg/kg [5]	inhibition in vivo at 100 mg/kg [6]	inhibition in vivo at 100 mg/kg [8]	Activity [9]	Activity [10]	Activity [11]	Activity [12]	inhibition in vivo at 100 mg/kg [13]	Activity [14]	Activity [15]	Activity [16]	UI [17]	Activity [18]	Activity [19]	Activity [20]	other results
0.6 µM	3.99 µM	0.15	Nc1nc(-c2ccc(Cl)cc2)cc(-c2cn(-c3ccccc3)nc2-c2ccc(OCc3ccccc3)cc2)n1	–	1.8 mm	30.4%	50.8%	20.4%	2.17 mm	–	–	–	–	–	–	–	–	–	–	–	–
5.2 µM	5.2 µM	1	NC(=S)n1nc(-c2ccccc2)cc1-c1cn(-c2ccccc2)nc1-c1ccc(OCc2ccccc2)cc1	–	1.8 mm	7.29%	3.97%	2.15%	2.2 mm	–	–	–	–	–	–	–	–	–	–	–	–
2.72 µM	2.79 µM	0.975	CC(=O)n1nc(-c2ccc(Cl)cc2)cc1-c1cn(-c2ccccc2)nc1-c1ccc(OCc2ccccc2)cc1	–	1.82 mm	49.7%	69.8%	25.8%	2.17 mm	–	–	–	–	–	–	–	–	–	–	–	–
0.31 µM	1 µM	0.31	S=c1nc(-c2ccccc2)cc(-c2cn(-c3ccccc3)nc2-c2ccc(OCc3ccccc3)cc2)[nH]1	–	1.88 mm	33.8%	48.5%	14.6%	2.19 mm	–	–	–	–	–	–	–	–	–	–	–	–
2.89 µM	1.25 µM	2.31	Clc1ccc(-c2cc(-c3cn(-c4ccccc4)nc3-c3ccc(OCc4ccccc4)cc3)on2)cc1	48.7%	–	70.9%	69.8%	42.9%	–	Toxic	Toxic	Toxic	45%	Toxic	Toxic	1.2	8.4	Toxic	1.2	Toxic	Activity [21]: Toxic; Activity [22]: 6%; Activity [23]: Toxic; Activity [24]: Toxic; Activity [25]: Toxic
